According to PMC12356538, “Targeting the SARS-CoV‑2 RNA Translation Initiation Element SL1 by Molecules of Low Molecular Weight” (Journal of the American Chemical Society, 2025):
Where two headings read alike, the source gives them in different places.

Key:
[1] = system: SARS-CoV-2 SL1 RNA (SL1 wt); format: binding; conditions: for wLOGSY factor / T2 reduction [%] / CSP [Hz]: 10 μM SL1 wt, 200 μM ligand; for wLOGSY factor / T2 reduction [%]: pH 6.2; for T2 reduction [%]: CPMG 100 vs 5 ms; for Rank: FBS ranking from summed ranks of CSP, wLOGSY and T2 results; for CSP [Hz]: ligand 1H CSP, [RNA]:[ligand] 1:20, pH 6.2; for CSP values relative to A.2: ligand CSP; for FBS binding to SL1, in words: ligand-detected NMR
SL1 Δbulge RNA = format: binding, SARS-CoV-2
[2] = pH 6.2
[3] = system: SL1 Δbulge-Nanoluciferase mRNA; format: biochemical, SARS-CoV-2
[4] = system: β-Globin-Nanoluciferase mRNA; assay: Cell-free translation assay in rabbit reticulocyte lysate, Nanoluciferase readout; format: biochemical; conditions: 0.2 μM mRNA, 2 μM compound
[5] = system: SL1 (wt)-Nanoluciferase mRNA; format: biochemical, SARS-CoV-2
SL1 wt RNA = assay: NMR-based KD estimation, ligand-detected 1D-1H titration; format: binding, SARS-CoV-2
SL1 RNA = assay: RNA-detected NMR binding site mapping (2D-1H,1H-TOCSY and 1D-1H); design: species or system SARS-CoV-2; conditions: for 1H,1H CSPs [ppm] C16H5-H6 / 1H,1H CSPs [ppm] C19H5-H6 / 1H,1H CSPs [ppm] C20H5-H6 / 1H,1H CSPs [ppm] C21H5-H6 / 1H,1H CSPs [ppm] C28H5-H6 / 1H,1H CSPs [ppm] C33H5-H6 / 1H,1H CSPs [ppm] C34H5-H6 / 1H,1H CSPs [ppm] U9H5-H6 / 1H,1H CSPs [ppm] U10H5-H6 / 1H,1H CSPs [ppm] U11H5-H6 / 1H,1H CSPs [ppm] U13H5-H6 / 1H,1H CSPs [ppm] U17H5-H6 / 1H,1H CSPs [ppm] U18H5-H6 / 1H,1H CSPs [ppm] U25H5-H6 / 1H,1H CSPs [ppm] C15H5-H6 / 1H,1H CSPs [ppm] C32H5-H6: 2D TOCSY, RNA 150 μM, compound 1 mM, 298 K; for 1H CSPs [ppm] A12H2 / 1H CSPs [ppm] A29H2: RNA-detected 1D-1H
[6] = ligand 100 μM, SL1 RNA 0 to 200 or 250 μM, 298 K, 600 MHz, pH 6.2, read-out: KD est
[7] = Suppl. Table 7, ligand constant at 100, SL1 wt RNA concentration 0-200, read-out: KDest

Structure (SMILES) | wLOGSY factor [1] | T2 reduction [%] [1] [%] | Rank ([1]; SL1 wt) | CSP [Hz] [1] [Hz] | FBS result (CSP, wLOGSY, T2 reduction) in words (SL1 Δbulge RNA) | effect on translation of SL1 wt mRNA, in words [5] | 1H,1H CSPs [ppm] C16H5-H6 (SL1 RNA) [ppm] | 1H,1H CSPs [ppm] C19H5-H6 (SL1 RNA) [ppm] | 1H,1H CSPs [ppm] C20H5-H6 (SL1 RNA) [ppm] | 1H,1H CSPs [ppm] C21H5-H6 (SL1 RNA) [ppm] | 1H,1H CSPs [ppm] C28H5-H6 (SL1 RNA) [ppm] | 1H,1H CSPs [ppm] C33H5-H6 (SL1 RNA) [ppm] | 1H,1H CSPs [ppm] C34H5-H6 (SL1 RNA) [ppm] | 1H,1H CSPs [ppm] U9H5-H6 (SL1 RNA) [ppm] | 1H,1H CSPs [ppm] U10H5-H6 (SL1 RNA) [ppm] | 1H,1H CSPs [ppm] U11H5-H6 (SL1 RNA) [ppm] | 1H,1H CSPs [ppm] U13H5-H6 (SL1 RNA) [ppm] | 1H,1H CSPs [ppm] U17H5-H6 (SL1 RNA) [ppm] | 1H,1H CSPs [ppm] U18H5-H6 (SL1 RNA) [ppm] | Kd (SL1 wt RNA; [7]) [µM] | also measured
CN(C)CC(=O)Nc1nc2ccc([N+](=O)[O-])cc2s1 [A.14] | 0.46 | 100.00 | 9 | 22.20 | no effects |  |  |  |  |  |  |  |  |  |  |  |  |  |  |  | CSP values relative to A.2 ([1]; SL1 wt): 2–3 times; solubility, in words [2]: poor solubility
CNC(=N)Nc1nc2ccc(OC)cc2s1 [A.4] | 1.21 | 77.83 | 20 | 16.14 |  | inhibitory effect | 0.0103 | 0.0293 | 0.0526 | 0.0441 | 0.1355 | 0.0050 | 0.0072 | 0.0130 | 0.0146 | 0.0030 | 0.0999 | 0.0288 | 0.0191 |  | effect on translation of SL1 Δbulge mRNA, in words [3]: inhibitory effect; effect on translation of β-globin mRNA, in words [4]: boost; Kd (SL1 wt RNA; Suppl. Table 7, ligand constant at 100, SL1 wt RNA concentration 0-250, read-out: KDest): 102 µM; Kd (SL1 wt RNA; [6]): 102 ± 8 µM; FBS binding to SL1, in words ([1]; SL1 wt): strongest FBS effects; binding site / selectivity for the bulge from CSP and LB mapping, in words (SL1 RNA): bound the bulge less selectively; 1H,1H CSPs [ppm] U25H5-H6 (SL1 RNA): 0.0099 ppm; 1H CSPs [ppm] A12H2 (SL1 RNA): 0.1560 ppm; 1H CSPs [ppm] A29H2 (SL1 RNA): 0.0670 ppm; CSP [Hz] (SL1 Δbulge RNA): 8.19 Hz; Rank (SL1 Δbulge RNA): 1; T2 reduction [%] (SL1 Δbulge RNA): 90.18%; wLOGSY factor (SL1 Δbulge RNA): 0.69
CCN(CCN[C@@H]1CCCN(CC(=O)Nc2nc3ccc(OC)cc3s2)C1)c1cccc(O)c1 [A.51] | 0.00 | 88.75 | 25 | 19.56 |  |  |  |  |  |  |  |  |  |  |  |  |  |  |  | 740 | CSP [Hz] (SL1 Δbulge RNA): 4.44 Hz; Rank (SL1 Δbulge RNA): 10; T2 reduction [%] (SL1 Δbulge RNA): 42.57%; wLOGSY factor (SL1 Δbulge RNA): 0.00
CNC(=O)Nc1nc2c(OC)cc(OC)cc2s1 [A.11] | 1.51 | 93.00 | 19 | 4.50 | no effects | no inhibition | 0.0020 | 0.0036 | 0.0045 | 0.0061 | 0.0130 | 0.0010 | 0.0025 | 0.0040 | 0.0072 | 0.0311 | 0.0216 | 0.0010 | 0.0043 |  | 1H,1H CSPs [ppm] C15H5-H6 (SL1 RNA): 0.0010 ppm; 1H,1H CSPs [ppm] C32H5-H6 (SL1 RNA): 0.0063 ppm; 1H,1H CSPs [ppm] U25H5-H6 (SL1 RNA): 0.0045 ppm; 1H CSPs [ppm] A12H2 (SL1 RNA): 0.0400 ppm; 1H CSPs [ppm] A29H2 (SL1 RNA): 0.0040 ppm
COc1cc(OC)c2nc(NC(=O)CN(C)C)sc2c1 [A.15] | 2.66 | 36.00 | 16 | 31.92 |  |  |  |  |  |  |  |  |  |  |  |  |  |  |  | 108 | CSP values relative to A.2 ([1]; SL1 wt): 2–3 times; CSP [Hz] (SL1 Δbulge RNA): 9.18 Hz; Rank (SL1 Δbulge RNA): 2; T2 reduction [%] (SL1 Δbulge RNA): 84.62%; wLOGSY factor (SL1 Δbulge RNA): 0.47
COc1ccc(-c2nnc(NC(=O)CN(C)C)s2)cc1OC [A.31] | 1.71 | 100.00 | 1 | 24.42 | no effects | nonspecific effects | 0.0073 | 0.0042 | 0.0021 | 0.0010 | 0.0228 | 0.0067 | 0.0204 | 0.0104 | 0.0112 | 0.0256 | 0.0206 | 0.0067 | 0.0021 | 146 | Kd (SL1 wt RNA; [6]): 146 ± 13 µM; binding site / selectivity for the bulge from CSP and LB mapping, in words (SL1 RNA): weaker binding characteristics; 1H,1H CSPs [ppm] C15H5-H6 (SL1 RNA): 0.0032 ppm; 1H,1H CSPs [ppm] C32H5-H6 (SL1 RNA): 0.0130 ppm; 1H,1H CSPs [ppm] U25H5-H6 (SL1 RNA): 0.0122 ppm; 1H CSPs [ppm] A12H2 (SL1 RNA): 0.0630 ppm; 1H CSPs [ppm] A29H2 (SL1 RNA): 0.0000 ppm
COc1ccc2nc(NC(=O)CN3CCC[C@H](N)C3)sc2c1 [A.36] | 0.82 | 100.00 | 2 | 30.18 | no effects | nonspecific effects | 0.0076 | 0.0036 | 0.0029 | 0.0010 | 0.0359 | 0.0057 | 0.0079 | 0.0100 | 0.0089 | 0.0063 | 0.0308 | 0.0045 | 0.0039 | 218 | effect on translation of SL1 Δbulge mRNA, in words [3]: increased translation efficiency; effect on translation of β-globin mRNA, in words [4]: increased translation efficiency; Kd (SL1 wt RNA; [6]): 218 ± 90 µM; FBS binding to SL1, in words ([1]; SL1 wt): positive effect on SL1 binding; binding site / selectivity for the bulge from CSP and LB mapping, in words (SL1 RNA): weaker binding characteristics; 1H,1H CSPs [ppm] C15H5-H6 (SL1 RNA): 0.0010 ppm; 1H,1H CSPs [ppm] C32H5-H6 (SL1 RNA): 0.0186 ppm; 1H,1H CSPs [ppm] U25H5-H6 (SL1 RNA): 0.0120 ppm; 1H CSPs [ppm] A12H2 (SL1 RNA): 0.0727 ppm
COc1ccc(-c2nnc(NC(=O)CN3CCC[C@H](N)C3)s2)cc1OC [A.58] | 0.00 | 96.61 | 10 | 39.18 |  |  |  |  |  |  |  |  |  |  |  |  |  |  |  | 77.5 | scoring in the FBS ranking compared with lead A ([1]; SL1 wt): ~4 fold; CSP [Hz] (SL1 Δbulge RNA): 9.24 Hz; Rank (SL1 Δbulge RNA): 2; T2 reduction [%] (SL1 Δbulge RNA): 73.56%; wLOGSY factor (SL1 Δbulge RNA): 0.00
COc1ccc2nc(NC(=O)CN3CCC[C@@H](N)C3)sc2c1 [A.37] | 1.01 | 100.00 | 3 | 24.72 | no effects |  |  |  |  |  |  |  |  |  |  |  |  |  |  | 171 | FBS binding to SL1, in words ([1]; SL1 wt): positive effect on SL1 binding
